Series [1] is described as follows: Stability in GPx assay buffer with GSH by RP-HPLC. Type of series: physicochemical. Here is the method: (§1) It has been reported that pentathiepins are instable in the presence of thiols such as GSH.20 Thus, the stability of a representative pentathiepin, 4, in the presence of GSH was studied first by APCI‐MS. Incubations of 4 in the presence of 10 mM GSH, a biologically relevant concentration, were monitored at 23 °C for a period up to 1 h. […] Next, the stability of 4 was studied by RP‐HPLC in the same buffer and with the same GSH concentration (0.25 mM) used in the GPx assay (see below). Over the course of a 70 min incubation a nearly 30 % loss of the pentathiepin (Figure S32) was observed. However, since the GPx assay is only run for 20 min, the direct reaction between 4 and GSH would only account for a ca. 10 % loss of pentathiepin under assay conditions.
Melting points were determined with a Büchi Melting Point M‐565 or a Büchi 545 (Büchi, Flawil, CH), temperatures are uncorrected. ^1H NMR and ^13C NMR spectra were recorded either with a Bruker Avance II‐300 or an Avance II Ultrashield 400 MHz instrument. Chemical shifts δ are given in ppm and the solvent residual peak (CDCl3: ^1H, δ=7.27; ^13C, δ=77.0 and [D6]DMSO: ^1H, δ=2.50; ^13C, δ=40) was used as an internal standard with the quinoxaline derivatives while TMS was used for the indole derivatives. APCI‐MS (m/z) spectra were recorded on an Advion MS. […]

The test system of series [2] is HL-60 cells. Kind of series: Cell morphology after incubation. As to conditions: 25 μM, 6 h. Type of series: cell-based, human.
Series [3] is described as follows: Stability in presence of GSH by APCI-MS. To be noted: 10 mM GSH, 23 °C, up to 1 h. Type of series: physicochemical. Here is the method:
as §1

A further series concerns HAP-1 cells. Kind of series: Alkaline comet assay. To be noted: 25 μM, 15 min at 0 °C. Type of series: cell-based, human. Here is the method: To assess the induction of DNA strand breaks by pentathiepin 4 the Comet Assay was used. The SISO and HAP‐1 cell lines were treated with either 1 % DMF (solvent control), 20 μM H2O2 (positive control) or 25 μM 4 for 15 min at 0 °C. The DNA in the comet head corresponds to still intact genomic DNA while the tail forms due to the damage of nuclear DNA (Figure 9B). […] For HAP‐1 cells a greater reduction of intact DNA from 86 % in control cells to 66 % in pentathiepin‐incubated cells was observed.
Alkaline comet assay to assess induction of DNA strand breaks: The method was adapted from Olive and Banath.40 The alkaline protocol allows for the detection of single and double strand breaks as well as alkali‐labile sites and is based on the different electrophoretic mobility of intact and damaged nuclear DNA. […] The induction of strand breaks creates free charged ends that drift out and form the characteristic comet tail. The percentage of DNA that is located in the comet head was selected as descriptor, which corresponds to the amount of still intact genomic DNA.
Briefly, SISO and HAP‐1 cells were harvested by trypsinization and a single cell suspension with 50 000 cells per mL PBS was prepared. Per condition 50 000 cells were incubated on ice (to impair DNA repair) with either the solvent control DMF (1.0 %), 20 μM H2O2 or 25 μM 4 for 15 min. Afterwards, 400 μL of the cell suspension were mixed with 1.2 mL 1 % low melting point agarose (Carl Roth, Germany) at 40 °C and evenly distributed on agarose‐precoated (GeneOn, Germany) glass slides (Thermo Fisher). After 3 min polymerization the slides were horizontally submerged in lysis buffer (1.2 M NaCl (Carl Roth, Germany), 0.1 % N‐Lauryl‐Sarcosinate (Merck), 0.1 M Na‐EDTA, 0.26 M NaOH) and placed at 4 °C overnight. Before electrophoresis at 0.6 V/cm for 25 min the slides were rinsed three times in rinse/electrophoresis buffer (0.002 M Na‐EDTA, 0.03 M NaOH). Afterwards, the slides were neutralized in distilled water and subsequently stained with 250 μL of a 10 μg/mL PI in water solution for 20 min. Finally, the slides were analyzed with a Leica DMi8 fluorescent microscope and LASX software (Leica, Germany) and comets were scored with CometScore 2.0 (Rex A. Hoover, www.rexhoover.com). At least 100 comets were scored per condition.

Series [4] concerns HL-60 cells. Kind of series: MTT cell viability assay. The series is classed as cell-based. As to conditions: Homo sapiens, 48 h, read-out: IC50 for viability reduction. Here is the method: We determined IC50 values for the viability reduction in a low micro molar range (Figure 6B).
MTT cell viability assay: For the detection of the inhibition of the viability of cells by the pentathiepins, the MTT‐viability assay was used.37 Briefly, 10 000 and 20 000 cells for the suspension cell lines HL‐60 and Gumbus, respectively, were seeded out in 50 μL medium per well and immediately exposed to the compounds. For the adherent cell lines SISO and HAP‐1, 3000 and 5000 cells, respectively, were seeded out in 96‐well plates and allowed to attach for 24 h. Cells were exposed to nine serial dilutions of compound, added to the medium from 1000‐fold concentrated stock solution in DMF. For the controls, cells were exposed to 0.1 % DMF alone. After 48 h incubation, 20 μL of the MTT stock solution (2.5 mg/mL in PBS) were added to each well to give a final concentration of 1.0 mM. The formazan crystals that formed after 4 h at 37 °C were dissolved by sonification after adding 100 μL of 0.04 M HCl in isopropanol for the suspension cell lines, or with 50 μL DMSO after aspiration of the medium for the adherent cell lines. Optical density was measured with a SpectraMax Plus 383 microtiter plate read at λ=570 nm (Molecular Devices, USA). […]
(In general: Tetrazolium dyes change colour on reduction, which living cells bring about.)

What is called IC50 is the concentration at which inhibition is half-maximal.

For the compound `CCOc1c2c(c3cnc4cc(C)c(C)cc4n13)SSSSS2` [Compound 4], in series [1] (0.25 mM GSH in GPx assay buffer, 70 min, 23 °C, RP-HPLC), the “loss of the pentathiepin” value is roughly 30%. Also, in series [1] (0.25 mM GSH, 20 min GPx assay duration), the “loss of pentathiepin under assay conditions” value is “ca. 10%”. Moreover, the change in morphology result in the series with HL-60 cells [2] is reported as “membrane blebbing”. Also, the “stability in presence of GSH (mass spectrum)” value in series [3] is given as “No changes in the mass spectrum”. The “percentage of intact DNA in comet head” value with HAP-1 cells is given as 66%. The 50% inhibitory concentration (IC50) with HL-60 cells [4] turned out to be 6.9 µM.

The values are drawn from PMC7496275, “Pentathiepins: A Novel Class of Glutathione Peroxidase 1 Inhibitors that Induce Oxidative Stress, Loss of Mitochondrial Membrane Potential and Apoptosis in Human Cancer Cells” (Chemmedchem, 2020).
